Patent publication US11359178B2, “Method for producing parasympathetic neurons” (NATIONAL INSTITUTE OF ADVANCED INDUSTRIAL SCIENCE AND …, priority 2018, dated 2022)

Columns and labels:
[1] = system: parasympathetic neurons obtained by culturing in the differentiation-inducing medium 3 (NDM+PMA+RA); conditions: nicotine 1 μM; neurons induced in NDM+PMA+RA, 13th to 37th day from start of culturing
Description: Furthermore, response to nicotine stimulation for parasympathetic neurons obtained by culturing in the differentiation-inducing medium 3 (NDM+PMA+RA) was assessed by intracellular calcium imaging. 1 mg/mL Fluo-4 AM (Invitrogen, F14201)/DMSO was directly added to a medium on the differentiation induction culture 24th day at a final concentration of 5 μg/mL. After incubation in an incubator (37° C., 5% CO2) for 30 minutes, the medium was removed and replaced with Ringer's solution (149 mM NaCl, 2.8 mM KCl, 2 mM CaCl2, 1 mM MgCl2, 10 mM HEPES, 10 mM D-(+)-glucose [pH 7.4]), and changes in the intracellular calcium concentrations were measured by detecting changes in the fluorescence intensity. For the measurement, 300 frames were photographed at a frame rate of 2 fps using an Olympus microscope (IX81), EMCCD (Andor iXon), and MetaMorph Software (Molecular Devices). Additionally, nicotine stimulation was performed by adding nicotine to Ringer's solution at a final concentration of 1 μM. ImageJ was used for data analysis after measurement.

[2] = system: autonomic neural progenitor cells; test: Induction of autonomic neural progenitor cells to differentiate into parasympathetic neurons, immune cell staining (TH, ChAT, PHOX2B, MAP2); type: cell-based, Human
Description: A 24-well plate coated with poly-L-ornithine and laminin was prepared by the following procedure. The plate was coated for one hour with a PLO solution (20 μg/mL) prepared with DW, washed once with DW, and coated for two hours with a laminin solution (5 μg/mL) prepared with PBS. Subsequently, the N2 medium was supplemented with 10 μM FSK, 10 ng/mL BDNF, 10 ng/mL GDNF, 10 ng/mL NT-3, 10 ng/mL NGF, and 50 μg/mL Ascorbic Acid (all final concentrations) to prepare a neural differentiation medium (NDM).
The following four kinds of differentiation-inducing media were prepared using NDM:
Differentiation-inducing medium 1: NDM+10 ng/mL PMA (final concentration)
Differentiation-inducing medium 2: NDM+1 μM RA (final concentration)
Differentiation-inducing medium 3: NDM+10 ng/mL PMA+1 μM RA (both final concentrations)
Differentiation-inducing medium 4: NDM only (by a known method)
The autonomic neural progenitor cells obtained by the above-described Step 5 were washed once with PBS, followed by addition of TrypLE Express Enzyme (250 μL/well), and cells were exfoliated by incubating the medium for five minutes. 10% FBS-containing DMEM was added to terminate the enzyme reaction, and the cells were collected in a centrifuge tube. After the medium was centrifuged at 200×g for four minutes, the supernatant was removed, cells were suspended with NDM, and the cells were counted. […] The media cultured for at least 20 days from the start of culturing with the differentiation-inducing media 1 to 4 were analyzed by immune staining and intracellular calcium imaging following the procedure described below. […]
The primary antibody solution was removed, and the plate was washed twice with 0.2% Tween 20/PBS, followed by addition of a secondary antibody/Can Get Signal Solution A (1000-fold diluted Alexa Fluro488 or 1000-fold diluted Alexa Fluor555) or 3000-fold diluted Hoechst 33342 solution, and the mixture was allowed to stand for one hour at room temperature. The secondary antibody solution was removed, and the plate was washed twice with 0.2% Tween 20/PBS and then observed under a fluorescence microscope.

GATA3 = conditions: Yamashita et al. 2002; Th2 cell differentiation; cited from earlier work
[3] = differentiation induction 13th to 87th day from start of culturing, 10 ng/mL PMA and/or 1 μM RA in NDM, compared with NDM only (FIG. 2)

SMILES | response to nicotine stimulation (intracellular calcium, Fluo-4 AM fluorescence) [1] | differentiation induction efficiency ([2]; 13th to 87th day, single additive in NDM, compared with NDM only) | ChAT positive cells (parasympathetic neuron marker) [2, 3] | TH positive cells (sympathetic neuron marker) [2, 3] | expression of transcription factor GATA3 (GATA3)
CN1CCCC1c1cccnc1 (single isomer, unassigned; (-)) [nicotine, (−)-Nicotine] | strong response |  |  |  | 
CCCCCCCCCCCCCC(=O)O[C@@H]1[C@@H](C)[C@@]2(O)[C@@H](C=C(CO)C[C@]3(O)C(=O)C(C)=C[C@@H]23)[C@@H]2C(C)(C)[C@]12OC(C)=O [PMA, Phorbol 12-myristate 13-acetate] |  | reduced | markedly reduced | markedly reduced | enhance
